In PMC3049928 (Archives of biochemistry and biophysics, 2010):

Biological target: SULT1A1 (human phenol sulfotransferase, human sulfotransferase 1A1) (Homo sapiens, UniProt P50225)
Test: pNPS assay of PAP sulfation, p-nitrophenol absorbance at […] nm
Format: biochemical

SULT1A1 (human phenol sulfotransferase, human sulfotransferase 1A1), sequence (P50225 whole entry): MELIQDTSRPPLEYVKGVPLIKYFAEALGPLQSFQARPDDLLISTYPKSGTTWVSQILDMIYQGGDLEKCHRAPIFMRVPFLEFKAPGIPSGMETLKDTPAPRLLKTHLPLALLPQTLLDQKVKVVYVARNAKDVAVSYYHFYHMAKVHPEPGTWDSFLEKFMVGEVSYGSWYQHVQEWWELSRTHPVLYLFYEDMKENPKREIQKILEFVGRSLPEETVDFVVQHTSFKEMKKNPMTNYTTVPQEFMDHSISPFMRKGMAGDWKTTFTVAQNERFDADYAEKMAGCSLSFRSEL

Oc1ccc2ccccc2c1 [2-naphthol]
Ki: 2600 ± 200 nM
